In ChEMBL document CHEMBL4665776, “Design, synthesis and SAR study of novel C2-pyrazolopyrimidine amides and amide isosteres as allosteric integrase inhibitors” (Bioorg Med Chem Lett, 2020):

Tests used:
[1] = Cytotoxicity against human MT2 cells; format: cell-based
[2] = tested on: Human immunodeficiency virus 1; assay: Antiviral activity against wild type HIV-1 NL4-3 in human MT2 cells assessed as inhibition of viral out growth replication by HIV1 infectivity assay; format: functional, organism-based; conditions: Human immunodeficiency virus 1, NL4-3, MT2
[3] = Displacement of [3H]2-tert-butoxy-2-(2-methyl-4-p-tolylquinolin-3-yl)acetic acid from LEDGF binding site of HIV1 integrase; set-up: species or system Human immunodeficiency virus 1
[4] = tested on: Human immunodeficiency virus 1; assay: Antiviral activity against wild type HIV-1 NL4-3 in human MT2 cells assessed as inhibition of viral out growth replication in presence of 40 mg/ml human serum albumin by HIV1 infectivity assay; format: functional, organism-based; conditions: Human immunodeficiency virus 1, NL4-3, MT2
[5] = Clearance in Sprague-Dawley rat at 1 mg/kg, iv; format: ADME, organism-based; conditions: in vivo
[6] = Metabolic stability in rat liver microsomes assessed as parent compound remaining at 0.5 uM incubated for 10 mins; format: ADME, Microsome; conditions: read-out: Stabilty
[7] = Half life in Sprague-Dawley rat at 1 mg/kg, iv; format: ADME, organism-based; conditions: in vivo
[8] = tested on: Human immunodeficiency virus 1; assay: Antiviral activity against HIV-1 NL4-3 harboring integrase A128T mutant in human MT2 cells assessed as inhibition of viral out growth replication by HIV1 infectivity assay; format: functional, organism-based; conditions: Human immunodeficiency virus 1, NL4-3, MT2
[9] = Volume of distribution at steady state in Sprague-Dawley rat at 1 mg/kg, iv; format: ADME, organism-based; conditions: in vivo, read-out: Vdss
[10] = Cmax in Sprague-Dawley rat at 1 mg/kg, iv; format: ADME, organism-based; set-up: route intravenous, dose 1 mg/kg; conditions: in vivo

Q: What does the source list for `Cc1nc2cc(C(=O)NCC3CCOCC3)nn2c(-c2cc(F)c3c(c2C)CCCO3)c1[C@H](OC(C)(C)C)C(=O)O`?
A: CC50 [1]: > 40 µM; EC50 [2]: 608 nM; IC50 [3]: 420 nM; EC50 [4]: 2660 nM

Q: For `Cc1nc2cc(C(=O)NCc3ccc(F)cc3N3CCCC3=O)nn2c(-c2cc(F)c3c(c2C)CCCO3)c1[C@H](OC(C)(C)C)C(=O)O`, which CC50 [1] is on record?
A: The CC50 was over 40 µM.

Q: And the EC50 [2]?
A: The EC50 was 2600 nM.

Q: What about the IC50 [3] of the same compound?
A: The IC50 was 65 nM.

Q: What about the EC50 [4] of the same compound?
A: Its EC50 is 9470 nM.

Q: Which results are given for `CNC(=O)c1cc(F)ccc1CNC(=O)c1cc2nc(C)c([C@H](OC(C)(C)C)C(=O)O)c(-c3cc(F)c4c(c3C)CCCO4)n2n1`?
A: CC50 [1]: > 40 µM; EC50 [2]: 3200 nM; IC50 [3]: 42 nM; EC50 [4]: > 20000 nM

Q: For `Cc1nc2cc(C(=O)NCC3CCCCC3)nn2c(-c2cc(F)c3c(c2C)CCCO3)c1[C@H](OC(C)(C)C)C(=O)O`, which CC50 [1] is on record?
A: Its CC50 is over 40 µM.

Q: And the EC50 [2]?
A: The EC50 was 12 nM.

Q: And the EC50 [4]?
A: Its EC50 is 342 nM.

Q: For `Cc1nc2cc(C(=O)NCCN3CCOCC3)nn2c(-c2cc(F)c3c(c2C)CCCO3)c1[C@H](OC(C)(C)C)C(=O)O`, which CC50 [1] is on record?
A: The CC50 was over 40 µM.

Q: What about the EC50 [2] of the same compound?
A: Its EC50 is 5920 nM.

Q: What about the IC50 [3] of the same compound?
A: The IC50 was 815 nM.

Q: What about the EC50 [4] of the same compound?
A: Its EC50 is 11700 nM.

Q: Which results are given for `Cc1nc2cc(C(=O)NCc3ccc(F)c(C4CC4)c3)nn2c(-c2cc(F)c3c(c2C)CCCO3)c1[C@H](OC(C)(C)C)C(=O)O`?
A: CC50 [1]: > 40 µM; EC50 [2]: 14 nM; IC50 [3]: 65 nM; EC50 [4]: 361 nM

Q: With `Cc1nc2cc(C(=O)NCc3ccc(F)cc3O)nn2c(-c2cc(F)c3c(c2C)CCCO3)c1[C@H](OC(C)(C)C)C(=O)O` as the compound, how does the CC50 [1] read?
A: Its CC50 is over 40 µM.

Q: And the EC50 [2]?
A: Its EC50 is 37 nM.

Q: What about the IC50 [3] of the same compound?
A: The IC50 was 67 nM.

Q: What about the EC50 [4] of the same compound?
A: Its EC50 is 1520 nM.

Q: Which results are given for `Cc1nc2cc(C(=O)NCCC(C)C)nn2c(-c2cc(F)c3c(c2C)CCCO3)c1[C@H](OC(C)(C)C)C(=O)O`?
A: CC50 [1]: > 40 µM; EC50 [2]: 18 nM; IC50 [3]: 120 nM; EC50 [4]: 122 nM

Q: With `Cc1nc2cc(C(=O)NCCC(C)(C)C)nn2c(-c2cc(F)c3c(c2C)CCCO3)c1[C@H](OC(C)(C)C)C(=O)O` as the compound, how does the clearance [5] read?
A: The clearance was 47 mL/min/kg.

Q: And the remaining at 10 min, 0.5 µM [6]?
A: The remaining at 10 min, 0.5 µM was 86%.

Q: And the CC50 [1]?
A: The CC50 was over 40 µM.

Q: And the half-life [7]?
A: The half-life was 42 min.

Q: And the EC50 [8]?
A: Its EC50 is 75 nM.

Q: What about the EC50 [2] of the same compound?
A: The EC50 was 13 nM.

Q: And the Vd [9]?
A: The Vd was 0.6 L/kg.

Q: And the IC50 [3]?
A: The IC50 was 84 nM.

Q: And the Cmax [10]?
A: Its Cmax is 79 nM.

Q: What about the EC50 [4] of the same compound?
A: The EC50 was 105 nM.

Q: With `Cc1nc2cc(-c3nc(Cc4ccc(F)cc4)no3)nn2c(-c2cc(F)c3c(c2C)CCCO3)c1[C@H](OC(C)(C)C)C(=O)O` as the compound, how does the CC50 [1] read?
A: The CC50 was over 20 µM.

Q: What about the EC50 [2] of the same compound?
A: Its EC50 is 28 nM.

Q: And the IC50 [3]?
A: Its IC50 is 117 nM.

Q: And the EC50 [4]?
A: The EC50 was 2530 nM.

Q: Which CC50 [1] does the source give for `Cc1nc2cc(C(=O)NCCC3CCCCC3)nn2c(-c2cc(F)c3c(c2C)CCCO3)c1[C@H](OC(C)(C)C)C(=O)O` here?
A: Its CC50 is over 40 µM.

Q: And the EC50 [2]?
A: The EC50 was 60 nM.

Q: What about the IC50 [3] of the same compound?
A: Its IC50 is 63 nM.

Q: And the EC50 [4]?
A: Its EC50 is 143 nM.

Q: What does the source list for `Cc1nc2cc(C(=O)NCc3ccc(F)cc3S(C)(=O)=O)nn2c(-c2cc(F)c3c(c2C)CCCO3)c1[C@H](OC(C)(C)C)C(=O)O`?
A: CC50 [1]: > 40 µM; EC50 [2]: 118 nM; IC50 [3]: 69 nM; EC50 [4]: 6570 nM

Q: With `COc1cc(F)ccc1CNC(=O)c1cc2nc(C)c([C@H](OC(C)(C)C)C(=O)O)c(-c3cc(F)c4c(c3C)CCCO4)n2n1` as the compound, how does the CC50 [1] read?
A: Its CC50 is over 40 µM.

Q: What about the EC50 [2] of the same compound?
A: Its EC50 is 53 nM.

Q: What about the IC50 [3] of the same compound?
A: The IC50 was 21 nM.

Q: And the EC50 [4]?
A: Its EC50 is 347 nM.

Q: With `Cc1nc2cc(C(=O)NCc3ccc(F)cc3-n3cncn3)nn2c(-c2cc(F)c3c(c2C)CCCO3)c1[C@H](OC(C)(C)C)C(=O)O` as the compound, how does the CC50 [1] read?
A: Its CC50 is over 40 µM.

Q: What about the EC50 [2] of the same compound?
A: Its EC50 is 508 nM.

Q: What about the IC50 [3] of the same compound?
A: Its IC50 is 21 nM.

Q: And the EC50 [4]?
A: Its EC50 is 2600 nM.

Q: Which results are given for `Cc1nc2cc(C(=O)NCc3ccc(F)cc3)nn2c(-c2cc(F)c3c(c2C)CCCO3)c1[C@H](OC(C)(C)C)C(=O)O`?
A: CC50 [1]: > 40 µM; EC50 [2]: 50 nM; IC50 [3]: 44 nM; EC50 [4]: 591 nM

Q: With `Cc1nc2cc(-c3ncc(Cc4ccc(F)cc4)s3)nn2c(-c2cc(F)c3c(c2C)CCCO3)c1[C@H](OC(C)(C)C)C(=O)O` as the compound, how does the clearance [5] read?
A: Its clearance is 53 mL/min/kg.

Q: And the remaining at 10 min, 0.5 µM [6]?
A: Its remaining at 10 min, 0.5 µM is 100%.

Q: What about the CC50 [1] of the same compound?
A: The CC50 was over 20 µM.

Q: What about the half-life [7] of the same compound?
A: Its half-life is 90 min.

Q: And the EC50 [8]?
A: The EC50 was 59 nM.

Q: And the EC50 [2]?
A: Its EC50 is 1 nM.

Q: And the Vd [9]?
A: The Vd was 3.3 L/kg.

Q: And the IC50 [3]?
A: Its IC50 is 15 nM.

Q: And the Cmax [10]?
A: The Cmax was 343 nM.

Q: And the EC50 [4]?
A: The EC50 was 34 nM.

Q: With `CCCNC(=O)c1cc2nc(C)c([C@H](OC(C)(C)C)C(=O)O)c(-c3cc(F)c4c(c3C)CCCO4)n2n1` as the compound, how does the CC50 [1] read?
A: Its CC50 is over 40 µM.

Q: What about the EC50 [2] of the same compound?
A: The EC50 was 262 nM.

Q: And the IC50 [3]?
A: Its IC50 is 1120 nM.

Q: And the EC50 [4]?
A: Its EC50 is 2340 nM.

Q: For `CCCc1cc(CNC(=O)c2cc3nc(C)c([C@H](OC(C)(C)C)C(=O)O)c(-c4cc(F)c5c(c4C)CCCO5)n3n2)ccc1F`, which CC50 [1] is on record?
A: The CC50 was over 20 µM.

Q: What about the EC50 [2] of the same compound?
A: The EC50 was 12 nM.

Q: And the IC50 [3]?
A: Its IC50 is 108 nM.

Q: What about the EC50 [4] of the same compound?
A: The EC50 was 247 nM.

Q: Which results are given for `COc1cc(CNC(=O)c2cc3nc(C)c([C@H](OC(C)(C)C)C(=O)O)c(-c4cc(F)c5c(c4C)CCCO5)n3n2)ccc1F`?
A: CC50 [1]: > 20 µM; EC50 [2]: 20 nM; EC50 [4]: 340 nM

Q: With `CCc1cc(CNC(=O)c2cc3nc(C)c([C@H](OC(C)(C)C)C(=O)O)c(-c4cc(F)c5c(c4C)CCCO5)n3n2)ccc1F` as the compound, how does the CC50 [1] read?
A: Its CC50 is over 40 µM.

Q: What about the EC50 [2] of the same compound?
A: Its EC50 is 15 nM.

Q: What about the IC50 [3] of the same compound?
A: The IC50 was 48 nM.

Q: And the EC50 [4]?
A: Its EC50 is 325 nM.

Q: What does the source list for `Cc1nc2cc(C(=O)NCCC3CCOCC3)nn2c(-c2cc(F)c3c(c2C)CCCO3)c1[C@H](OC(C)(C)C)C(=O)O`?
A: CC50 [1]: > 40 µM; EC50 [2]: 173 nM; IC50 [3]: 95 nM; EC50 [4]: 1770 nM

Q: For `Cc1cc(CNC(=O)c2cc3nc(C)c([C@H](OC(C)(C)C)C(=O)O)c(-c4cc(F)c5c(c4C)CCCO5)n3n2)ccc1F`, which clearance [5] is on record?
A: The clearance was 58 mL/min/kg.

Q: And the remaining at 10 min, 0.5 µM [6]?
A: The remaining at 10 min, 0.5 µM was 96%.

Q: What about the CC50 [1] of the same compound?
A: The CC50 was over 40 µM.

Q: What about the half-life [7] of the same compound?
A: Its half-life is 24 min.

Q: What about the EC50 [8] of the same compound?
A: The EC50 was 35 nM.

Q: What about the EC50 [2] of the same compound?
A: The EC50 was 15 nM.

Q: And the Vd [9]?
A: The Vd was 0.6 L/kg.

Q: And the IC50 [3]?
A: Its IC50 is 42 nM.

Q: What about the Cmax [10] of the same compound?
A: The Cmax was 7 nM.

Q: What about the EC50 [4] of the same compound?
A: The EC50 was 236 nM.

Q: What does the source list for `Cc1nc2cc(-c3ncc(-c4ccc(F)cc4)s3)nn2c(-c2cc(F)c3c(c2C)CCCO3)c1[C@H](OC(C)(C)C)C(=O)O`?
A: CC50 [1]: > 20 µM; EC50 [2]: 10 nM; IC50 [3]: 195 nM; EC50 [4]: 296 nM

Q: Which CC50 [1] does the source give for `Cc1nc2cc(-c3ncc(Cc4ccc(F)cc4)o3)nn2c(-c2cc(F)c3c(c2C)CCCO3)c1[C@H](OC(C)(C)C)C(=O)O` here?
A: Its CC50 is over 20 µM.

Q: And the EC50 [8]?
A: Its EC50 is 56 nM.

Q: What about the EC50 [2] of the same compound?
A: Its EC50 is 6 nM.

Q: And the IC50 [3]?
A: Its IC50 is 21 nM.

Q: What about the EC50 [4] of the same compound?
A: Its EC50 is 324 nM.
